In brackets after ≈: the same amount, converted by molar mass.
How the values were obtained:
Candida albicans A9540 [1] = assay: Intravenous Candida albicans infection mouse model, Table 2 part A; type: in vivo; conditions: drug administered once just after infection, 20 days after fungal challenge, method of Litchfield and Wilcoxon, male ICR mice
Experimental: Several compounds were also evaluated in an intravenous Candida albicans […] infection mouse model. The test organism was suspended in saline approximately 10 times the median lethal dose of the fungus (10⁶ cells/mouse) were used to infect intravenously male ICR mice weighing 20 to 24 g. Groups of five mice at each dose level were given the test compounds intravenously or intramuscularly. The 50% protective dose (PD₅₀) was calculated from survival rates recorded 20 or 21 days after the fungal challenge. Control animals died between 7 to 15 days.

FA21436 = assay: In vitro antifungal activity, serial agar dilution method (Table 1); type: cell-based, Asoergukkys flavus; conditions: for MIC: 40 h, pH 7, read-out: MIC, Asoergukkys flavus FA21436; for Partial Inhibition, Asoergukkys flavus FA21436: value in parentheses = Partial Inhibition, Sabouraud dextrose agar (pH 7.0), 28°C for 40 hours
Experimental: (§1) The inoculum size was adjusted to 10⁶ cells/ml, and a volume of approximately 0.003 ml of fungal suspension was applied to the surface of the antibiotic containing agar plates with a multiinoculator. After incubation, the lowest concentration of antibiotic causing virtually complete inhibition of fungal growth was determined as the minimum inhibitory concentration (MIC). Table 1. [table]

[2] = tested on: Trichophyton mentagrophytes #4329; assay: as above; type: cell-based; conditions: Sabouraud dextrose agar (pH 7.0), 28°C for 40 hours; for MIC: Trichophyton mentagrophytes
Experimental: as §1

[3] = tested on: Sprotricosis schenckii IFO8158; assay: as above; type: cell-based; conditions: 40 h, pH 7, read-out: MIC, Sprotricosis schenckii IFO8158
Experimental: as §1

[4] = tested on: Trichophyton mentagrophytes D155; assay: as above; type: cell-based; conditions: Trichophyton mentagrophytes, D155; Sabouraud dextrose agar (pH 7.0); 28°C for 40 hours
Experimental: as §1

[5] = tested on: Aspergillus fumigatus IAM2530; assay: as above; type: cell-based; conditions: Aspergillus fumigatus, IAM2530; Sabouraud dextrose agar (pH 7.0); 28°C for 40 hours
Experimental: as §1

[6] = tested on: Blastomyces dermatidis D40; assay: as above; type: cell-based; conditions: Blastomyces, D40, 40 h, pH 7, read-out: MIC, Blastomyces dermatidis D40
Experimental: as §1

[7] = tested on: Fusarium moniliforme A2284; assay: as above; type: cell-based; conditions: Fusarium verticillioides, A2284; Sabouraud dextrose agar (pH 7.0); 28°C for 40 hours
Experimental: as §1

[8] = tested on: Aspergillus fumigatus IAM2034; assay: as above; type: cell-based; conditions: Aspergillus fumigatus, IAM2034; Sabouraud dextrose agar (pH 7.0); 28°C for 40 hours
Experimental: as §1

Mucor spinosus IFO5317 = assay: as above; type: cell-based; conditions: Sabouraud dextrose agar (pH 7.0), 28°C for 40 hours; for MIC: Mucor spinosus, IFO5317; for Partial Inhibition, Mucor spinosus IFO5317: value in parentheses = Partial Inhibition
Experimental: as §1

Candida albicans IAM4888 = assay: as above; type: cell-based; conditions: Sabouraud dextrose agar (pH 7.0), 28°C for 40 hours; for MIC: Candida albicans, IAM4888
Experimental: as §1

[9] = tested on: Cryptococcus neoformans D49; assay: as above; type: cell-based; conditions: Cryptococcus neoformans, D49, 40 h, pH 7, read-out: MIC, Cryptococcus neoformans D49
Experimental: as §1

Candida albicans A9540 [10] = assay: as above; type: cell-based; conditions: Sabouraud dextrose agar (pH 7.0), 28°C for 40 hours; for MIC: Candida albicans, A9540
Experimental: as §1

[11] = tested on: Petriellidium boydii IFO8078; assay: as above; type: cell-based; conditions: Scedosporium boydii, IFO8078; Sabouraud dextrose agar (pH 7.0); 28°C for 40 hours
Experimental: as §1

[12] = tested on: Cryptococcus neoformans IAM4514; assay: as above; type: cell-based; conditions: Cryptococcus neoformans, IAM4514; Sabouraud dextrose agar (pH 7.0); 28°C for 40 hours
Experimental: as §1

[13] = value in parentheses = Partial Inhibition

Experimental for physchem: The sample (3 ∼ 3.5 mg) was suspended in 1 ml of PBS(-) or PBS(+), sonicated at 30°C for 10 minutes, and allowed to stand at room temperature for 2 hours. The resulting solution or suspension was centrifuged at 12,000 rpm for 10 minutes. The supernatant (pH 6.7 ∼ 7.2) was diluted (5 x or 50 x) with 0.01N NaOH (pH ca. 11.5) and its UV absorption at 500 nm was measured. The solubility was assessed by the absorption coefficient value with reference to the standard. […] The zwitterionic form sample was used for the solubility test as it is. The hydrochloride salt sample (3 mg) was dissolved in 3 ml of distilled water and neutralized with 0.01N NaOH, and then the solution was lyophilized to give a test sample.
Dulbecco's phosphate buffered saline (PBS) solution was used. Preparation of PBS(-) solution: One PBS(-) tablet (Flow Laboratories, Cat. No. 28-103-05) was dissolved in 100 ml distilled water, and the solution was autoclaved for 10 minutes at 115°C. This solution contains 0.2 g/L of KCl, 0.2 g/L of KH₂PO₄, 8 g/L of NaCl, and 1.15 g/L of Na₂HPO₄. Preparation of PBS(+) solution: One PBS(-) tablet was dissolved in 80 ml distilled water; 10 mg of CaCl₂ was dissolved in 10 ml distilled water; 10 mg of MgCl₂, 6H₂O was dissolved in 10 ml distilled water. These solutions were separately autoclaved, as described above, and mixed when cooled.

SMILES | PD₅₀ (Candida albicans A9540 [1]) | MIC (FA21436) | Partial Inhibition, Asoergukkys flavus FA21436 (FA21436) | MIC [2] | MIC [3] | MIC [4] | MIC [5] | MIC [6] | MIC [7] | MIC [8] | MIC (Mucor spinosus IFO5317) | MIC (Candida albicans IAM4888) | MIC [9] | MIC (Candida albicans A9540 [10]) | MIC [11] | MIC [12] | Partial Inhibition, Mucor spinosus IFO5317 (Mucor spinosus IFO5317) | solubility at 2 h (physchem; Method II (+): PBS(+)) | further results
COc1cc(O)c2c(c1)C(=O)c1c(cc3c(c1O)-c1c(cc(C)c(C(=O)N[C@H](C)C(=O)O)c1O)[C@H](O[C@@H]1O[C@H](C)[C@H](NCS(=O)(=O)O)[C@H](O[C@@H]4OC[C@@H](O)[C@H](O)[C@H]4O)[C@H]1O)[C@H]3O)C2=O [Ex. 7, N-(sodiosulfomethyl) pradimicin C] | 7.2 mg/kg | > 50 µg/mL | 3.1 µg/mL | 25 µg/mL (≈ 27.1 µM) | 1.6 µg/mL (≈ 1.74 µM) | 50 µg/mL (≈ 54.3 µM) | 3.1 µg/mL (≈ 3.37 µM) | 3.1 µg/mL (≈ 3.37 µM) | > 50 µg/mL | > 50 µg/mL | > 50 µg/mL | 3.1 µg/mL (≈ 3.37 µM) | 0.4 µg/mL (≈ 0.434 µM) | 3.1 µg/mL (≈ 3.37 µM) | > 50 µg/mL | 0.4 µg/mL (≈ 0.434 µM) |  |  | Partial Inhibition, Trichophyton mentagrophytes #4329 [2, 13]: 3.1 µg/mL; solubility at 2 h (physchem; Method II (-): PBS(-)): 3 µg/mL (≈ 3.26 µM)
COc1cc(O)c2c(c1)C(=O)c1c(cc3c(c1O)-c1c(cc(C)c(C(=O)N[C@H](C)C(=O)O)c1O)[C@H](O[C@@H]1O[C@H](C)[C@H](N(C)C=O)[C@H](O[C@@H]4OC[C@@H](O)[C@H](O)[C@H]4O)[C@H]1O)[C@H]3O)C2=O [Ex. 9, N-formyl pradimicin A] | >50 mg/kg | > 100 µg/mL |  | 25 µg/mL (≈ 28.8 µM) | 50 µg/mL (≈ 57.6 µM) | 25 µg/mL (≈ 28.8 µM) | 50 µg/mL (≈ 57.6 µM) | 100 µg/mL (≈ 115 µM) | > 100 µg/mL | 50 µg/mL (≈ 57.6 µM) | > 100 µg/mL | 25 µg/mL (≈ 28.8 µM) | 25 µg/mL (≈ 28.8 µM) | 25 µg/mL (≈ 28.8 µM) |  | 12.5 µg/mL (≈ 14.4 µM) | 50.0 µg/mL | > 32000 µg/mL | 
COc1cc(O)c2c(c1)C(=O)c1c(cc3c(c1O)-c1c(cc(C)c(C(=O)N[C@H](C)C(=O)O)c1O)[C@H](O[C@@H]1O[C@H](C)[C@H](N(C)C(=O)CN)[C@H](O[C@@H]4OC[C@@H](O)[C@H](O)[C@H]4O)[C@H]1O)[C@H]3O)C2=O [Ex. 10, N-glycyl pradimicin A] | 30 mg/kg | > 100 µg/mL |  | 12.5 µg/mL (≈ 13.9 µM) | 12.5 µg/mL (≈ 13.9 µM) | 12.5 µg/mL (≈ 13.9 µM) | 12.5 µg/mL (≈ 13.9 µM) | 12.5 µg/mL (≈ 13.9 µM) | > 100 µg/mL | 100 µg/mL (≈ 111 µM) | > 100 µg/mL | 6.3 µg/mL (≈ 7.02 µM) | 1.6 µg/mL (≈ 1.78 µM) | 12.5 µg/mL (≈ 13.9 µM) |  | 1.6 µg/mL (≈ 1.78 µM) |  | 1000 µg/mL (≈ 1110 µM) | 
COc1cc(O)c2c(c1)C(=O)c1c(cc3c(c1O)-c1c(cc(C)c(C(=O)N[C@H](C)C(=O)O)c1O)[C@H](O[C@@H]1O[C@H](C)[C@H](N(C)C(=O)CCN)[C@H](O[C@@H]4OC[C@@H](O)[C@H](O)[C@H]4O)[C@H]1O)[C@H]3O)C2=O [Ex. 11, N-(β-alanyl) pradimicin A] | 36 mg/kg | > 100 µg/mL | >100.0 (100.0) µg/ml | 100 µg/mL (≈ 110 µM) | 6.3 µg/mL (≈ 6.91 µM) | 100 µg/mL (≈ 110 µM) | 50 µg/mL (≈ 54.8 µM) | 12.5 µg/mL (≈ 13.7 µM) | > 100 µg/mL | 100 µg/mL (≈ 110 µM) | > 100 µg/mL | 12.5 µg/mL (≈ 13.7 µM) | 1.6 µg/mL (≈ 1.75 µM) | 12.5 µg/mL (≈ 13.7 µM) | > 100 µg/mL | 1.6 µg/mL (≈ 1.75 µM) | 25.0 µg/mL | 250 µg/mL (≈ 274 µM) | Partial Inhibition, Candida albicans IAM4888 (Candida albicans IAM4888; [13]): 6.3 µg/mL; Partial Inhibition, Candida albicans A9540 (Candida albicans A9540 [10]; [13]): 6.3 µg/mL
